For 25 compounds, Ki results are on record in patent publication US7592345B2, “Piperazine and [1,4]diazepan derivatives as NK antagonists” (Hoffmann-La Roche Inc., priority 2007, dated 2009).

The target in this experiment is T1, recombinant human NK3 receptor (Homo sapiens, UniProt P29371).
T1 construct: expressed in transfected cells; host or cells: HEK293 cells (transient expression), membranes
T1 sequence (P29371 1-465): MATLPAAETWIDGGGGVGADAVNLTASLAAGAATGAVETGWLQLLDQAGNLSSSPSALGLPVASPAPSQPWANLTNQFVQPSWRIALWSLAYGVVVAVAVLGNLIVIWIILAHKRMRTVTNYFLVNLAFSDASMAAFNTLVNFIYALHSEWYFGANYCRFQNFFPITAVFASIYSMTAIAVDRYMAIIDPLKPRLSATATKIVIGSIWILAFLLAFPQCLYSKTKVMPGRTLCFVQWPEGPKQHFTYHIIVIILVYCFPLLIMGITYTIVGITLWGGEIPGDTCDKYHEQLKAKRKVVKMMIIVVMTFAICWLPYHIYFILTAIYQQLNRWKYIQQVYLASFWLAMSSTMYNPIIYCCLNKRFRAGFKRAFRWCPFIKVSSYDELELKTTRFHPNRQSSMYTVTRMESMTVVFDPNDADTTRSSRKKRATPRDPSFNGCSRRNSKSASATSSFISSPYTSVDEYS
In words: [3H]SR142801 competition binding assay. The conditions noted are these: [3H]SR142801, membranes from HEK293 cells transiently expressing recombinant human NK3 receptor; read-out: hNK3 Ki. The method in brief:
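Membranes from HEK293 cells transiently expressing human NK3 were incubated 75 min at RT with [3H]SR142801 at its KD and inhibitor (0.0003-10 μM) in Tris-HCl pH 7.4/MnCl2/phosphoramidon/BSA. Nonspecific binding used 10 μM SB222200. Ki from Hill-fitted IC50 via Cheng-Prusoff, duplicate determinations.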

As to `COc1ccc(CN(C)C(=O)C(C)(CCN2CCN(S(C)(=O)=O)[C@@H](C)C2)c2ccc(Cl)c(Cl)c2)cc1F` (stereo partly drawn) [Example 62, 2-(3,4-Dichloro-phenyl)-N-(3-fluoro-4-methoxy-benzyl)-4-((S)-4-methanesulfonyl-3-methyl-piperazin-1-yl)-2,N-dimethyl-butyramide], the Ki was 0.216 µM.

As to `COc1ccc(C(NC(=O)C(C)(CCN2CCN(S(C)(=O)=O)[C@@H](C)C2)c2ccc(Cl)c(Cl)c2)C2CC2)cc1` (stereo partly drawn) [Example 63, N-[Cyclopropyl-(4-methoxy-phenyl)-methyl]-2-(3,4-dichloro-phenyl)-4-((S)-4-methanesulfonyl-3-methyl-piperazin-1-yl)-2-methyl-butyramide], the Ki came out at 0.0657 µM.

Regarding `C[C@H]1CN(CCC(C)(C(=O)N(C)Cc2ccc(F)c(C(F)(F)F)c2)c2ccc(Cl)c(Cl)c2)CCN1S(C)(=O)=O` (stereo partly drawn) [Example 64, 2-(3,4-Dichloro-phenyl)-N-(4-fluoro-3-trifluoromethyl-benzyl)-4-((S)-4-methanesulfonyl-3-methyl-piperazin-1-yl)-2,N-dimethyl-butyramide], the Ki was found to be 0.0168 µM. To `C[C@H]1CN(CCC(C)(C(=O)NCc2cc(C(F)(F)F)cc(C(F)(F)F)c2)c2ccc(Cl)c(Cl)c2)CCN1S(C)(=O)=O` (stereo partly drawn) [Example 65, N-(3,5-Bis-trifluoromethyl-benzyl)-2-(3,4-dichloro-phenyl)-4-((S)-4-methanesulfonyl-3-methyl-piperazin-1-yl)-2-methyl-butyramide] belongs 0.0846 µM.

Take `COc1cc(CN(C)C(=O)C(C)(CCN2CCN(S(C)(=O)=O)[C@@H](C)C2)c2ccc(Cl)c(Cl)c2)ccc1OC(F)F` (stereo partly drawn) [Example 66, 2-(3,4-Dichloro-phenyl)-N-(4-difluoromethoxy-3-methoxy-benzyl)-4-((S)-4-methanesulfonyl-3-methyl-piperazin-1-yl)-2,N-dimethyl-butyramide]: the Ki was 0.277 µM. On to `Cc1ccc(CN(C)C(=O)C(C)(CCN2CCN(S(C)(=O)=O)[C@@H](C)C2)c2ccc(Cl)c(Cl)c2)cc1` (stereo partly drawn) [Example 67, 2-(3,4-Dichloro-phenyl)-4-((S)-4-methanesulfonyl-3-methyl-piperazin-1-yl)-2,N-dimethyl-N-(4-methyl-benzyl)-butyramide], for which the Ki worked out at 0.0992 µM. With `C[C@H]1CN(CCC(C)(C(=O)NCc2ccc(N(C)C)cc2)c2ccc(Cl)c(Cl)c2)CCN1S(C)(=O)=O` (stereo partly drawn) [Example 68, 2-(3,4-Dichloro-phenyl)-N-(4-dimethylamino-benzyl)-4-((S)-4-methanesulfonyl-3-methyl-piperazin-1-yl)-2-methyl-butyramide], the Ki is 0.734 µM. Then `C[C@H]1CN(CCC(C)(C(=O)N(C)Cc2ccc(Cl)c(C(F)(F)F)c2)c2ccc(Cl)c(Cl)c2)CCN1S(C)(=O)=O` (stereo partly drawn) [Example 69, N-(4-Chloro-3-trifluoromethyl-benzyl)-2-(3,4-dichloro-phenyl)-4-((S)-4-methanesulfonyl-3-methyl-piperazin-1-yl)-2,N-dimethyl-butyramide], with 0.0114 µM; and `C[C@H]1CN(CCC(C)(C(=O)N(C)Cc2ccc(C(F)(F)F)c(F)c2)c2ccc(Cl)c(Cl)c2)CCN1S(C)(=O)=O` (stereo partly drawn) [Example 70, 2-(3,4-Dichloro-phenyl)-N-(3-fluoro-4-trifluoromethyl-benzyl)-4-((S)-4-methanesulfonyl-3-methyl-piperazin-1-yl)-2,N-dimethyl-butyramide], with 0.0192 µM.

With `C[C@H]1CN(CCC(C)(C(=O)N(C)Cc2ccc(Cl)c(Cl)c2)c2ccc(Cl)c(Cl)c2)CCN1S(C)(=O)=O` (stereo partly drawn) [Example 71, N-(3,4-Dichloro-benzyl)-2-(3,4-dichloro-phenyl)-4-((S)-4-methanesulfonyl-3-methyl-piperazin-1-yl)-2,N-dimethyl-butyramide], the Ki amounted to 0.0125 µM. Then `C[C@H]1CN(CCC(C)(C(=O)NCc2ccc(Cl)c(Cl)c2)c2ccc(Cl)c(Cl)c2)CCN1S(C)(=O)=O` (stereo partly drawn) [Example 72, N-(3,4-Dichloro-benzyl)-2-(3,4-dichloro-phenyl)-4-((S)-4-methanesulfonyl-3-methyl-piperazin-1-yl)-2-methyl-butyramide], with 0.0429 µM; and `C[C@H]1CN(CCC(C)(C(=O)NCc2cccc(OC(F)F)c2)c2ccc(Cl)c(Cl)c2)CCN1S(C)(=O)=O` (stereo partly drawn) [Example 73, 2-(3,4-Dichloro-phenyl)-N-(3-difluoromethoxy-benzyl)-4-((S)-4-methanesulfonyl-3-methyl-piperazin-1-yl)-2-methyl-butyramide], with 0.3 µM; and `C[C@H]1CN(CCC(C)(C(=O)NCc2cc(F)ccc2C(F)(F)F)c2ccc(Cl)c(Cl)c2)CCN1S(C)(=O)=O` (stereo partly drawn) [Example 74, 2-(3,4-Dichloro-phenyl)-N-(5-fluoro-2-trifluoromethyl-benzyl)-4-((S)-4-methanesulfonyl-3-methyl-piperazin-1-yl)-2-methyl-butyramide], with 0.496 µM.

On to `C[C@H]1CN(CCC(C)(C(=O)NCc2ccc(C(F)(F)F)cc2)c2ccc(Cl)c(Cl)c2)CCN1S(C)(=O)=O` (stereo partly drawn) [Example 75, 2-(3,4-Dichloro-phenyl)-4-((S)-4-methanesulfonyl-3-methyl-piperazin-1-yl)-2-methyl-N-(4-trifluoromethyl-benzyl)-butyramide], for which the Ki turned out to be 0.0681 µM. Then `C[C@H]1CN(CCC(C)(C(=O)NCc2cc(C(F)(F)F)ccc2F)c2ccc(Cl)c(Cl)c2)CCN1S(C)(=O)=O` (stereo partly drawn) [Example 76, 2-(3,4-Dichloro-phenyl)-N-(2-fluoro-5-trifluoromethyl-benzyl)-4-((S)-4-methanesulfonyl-3-methyl-piperazin-1-yl)-2-methyl-butyramide], with 0.311 µM; and `CC(NC(=O)C(C)(CCN1CCN(S(C)(=O)=O)[C@@H](C)C1)c1ccc(Cl)c(Cl)c1)c1ccc(Cl)cc1` (stereo partly drawn) [Example 77, N-[1-(4-Chloro-phenyl)-ethyl]-2-(3,4-dichloro-phenyl)-4-((S)-4-methanesulfonyl-3-methyl-piperazin-1-yl)-2-methyl-butyramide], with 0.0674 µM; and `COc1cccc(CN(C)C(=O)C(C)(CCN2CCN(S(C)(=O)=O)[C@@H](C)C2)c2ccc(Cl)c(Cl)c2)c1` (stereo partly drawn) [Example 78, 2-(3,4-Dichloro-phenyl)-4-((S)-4-methanesulfonyl-3-methyl-piperazin-1-yl)-N-(3-methoxy-benzyl)-2,N-dimethyl-butyramide], with 0.611 µM. Then `C[C@H]1CN(CCC(C)(C(=O)N(C)Cc2ccccc2Cl)c2ccc(Cl)c(Cl)c2)CCN1S(C)(=O)=O` (stereo partly drawn) [Example 79, N-(2-Chloro-benzyl)-2-(3,4-dichloro-phenyl)-4-((S)-4-methanesulfonyl-3-methyl-piperazin-1-yl)-2,N-dimethyl-butyramide], with 0.168 µM. To `CC(NC(=O)C(C)(CCN1CCN(S(C)(=O)=O)[C@@H](C)C1)c1ccc(Cl)c(Cl)c1)c1ccc(Cl)c(Cl)c1` (stereo partly drawn) [Example 80, 2-(3,4-Dichloro-phenyl)-N-[1-(3,4-dichloro-phenyl)-ethyl]-4-((S)-4-methanesulfonyl-3-methyl-piperazin-1-yl)-2-methyl-butyramide] belongs 0.0162 µM. Turning to `C[C@H]1CN(CCC(C)(C(=O)NCc2cccc(OC(F)(F)F)c2)c2ccc(Cl)c(Cl)c2)CCN1S(C)(=O)=O` (stereo partly drawn) [Example 81, 2-(3,4-Dichloro-phenyl)-4-((S)-4-methanesulfonyl-3-methyl-piperazin-1-yl)-2-methyl-N-(3-trifluoromethoxy-benzyl)-butyramide], the Ki worked out at 0.126 µM. Regarding `C[C@H]1CN(CCC(C)(C(=O)NCc2ccc(Cl)c(F)c2)c2ccc(Cl)c(Cl)c2)CCN1S(C)(=O)=O` (stereo partly drawn) [Example 82, N-(4-Chloro-3-fluoro-benzyl)-2-(3,4-dichloro-phenyl)-4-((S)-4-methanesulfonyl-3-methyl-piperazin-1-yl)-2-methyl-butyramide], the Ki stood at 0.0942 µM. For `C[C@H]1CN(CCC(C)(C(=O)NCc2ccc(OC(F)(F)F)cc2)c2ccc(Cl)c(Cl)c2)CCN1S(C)(=O)=O` (stereo partly drawn) [Example 83, 2-(3,4-Dichloro-phenyl)-4-((S)-4-methanesulfonyl-3-methyl-piperazin-1-yl)-2-methyl-N-(4-trifluoromethoxy-benzyl)-butyramide], the Ki amounted to 0.0571 µM. Then `C[C@H]1CN(CCC(C)(C(=O)NCc2ccc(Cl)c(C(F)(F)F)c2)c2ccc(Cl)c(Cl)c2)CCN1S(C)(=O)=O` (stereo partly drawn) [Example 84, N-(4-Chloro-3-trifluoromethyl-benzyl)-2-(3,4-dichloro-phenyl)-4-((S)-4-methanesulfonyl-3-methyl-piperazin-1-yl)-2-methyl-butyramide], with 0.0452 µM; and `C[C@H]1CN(CCC(C)(C(=O)N(C)Cc2ccc(C(F)(F)F)cc2)c2ccc(Cl)c(Cl)c2)CCN1S(C)(=O)=O` (stereo partly drawn) [Example 85, 2-(3,4-Dichloro-phenyl)-4-((S)-4-methanesulfonyl-3-methyl-piperazin-1-yl)-2,N-dimethyl-N-(4-trifluoromethyl-benzyl)-butyramide], with 0.0277 µM; and `C[C@H]1CN(CCC(C)(C(=O)N(C)Cc2ccc(Cl)cc2)c2ccc(Cl)c(Cl)c2)CCN1S(C)(=O)=O` (stereo partly drawn) [Example 86, N-(4-Chloro-benzyl)-2-(3,4-dichloro-phenyl)-4-((S)-4-methanesulfonyl-3-methyl-piperazin-1-yl)-2,N-dimethyl-butyramide], with 0.0663 µM.
